Values after ≈ are worked out from the molar mass of the structure shown. Like-named read-outs stand apart in the source and are kept apart here.
Legend:
[1] = system: K. pneumoniae UMM; test: MIC; type: cell-based; details: Klebsiella pneumoniae; K. pneumoniae UMM; read-out: MIC
[2] = system: S. aureus specific Arg ASL (anticodon stem loop) RNA oligomer interaction with programmed ribosomes; test: Fluorescence polarization assay of Arg ASL / programmed ribosome complex (HTS and dose response); type: binding, S. aureus Arg ASL; E. coli 70S ribosomes; details: 6 pt dose response, fluorescence polarization after 4 hours at 25° C., corrected for auto-fluorescence
Excerpt: The assay requires the following materials: • Ribosomes—isolated from E. coli or S. aureus • fMet tRNA (Sigma or Chemical Block, Moscow) • mRNA (including the S-D sequence, the “box” sequence, the codon for methionine, and the codon for arginine that is specific for S. aureus, AGA, optionally with additional base pairs to the left of the S-D sequence and/or to the right of the codon for arginine) • Fluorescently labeled Arg ASL oliogomer • Buffer—HAM20,β • 384 well high binding micro titer plates (Matrix Technologies #4319, sold by Fischer Scientific as cat #50823855), or other appropriate plates for use in high throughput screening • Filtration (Sartorius Stedium 100 Kdalton VC 1042) or centrifugation for complex purification • EDTA—negative control (binding antagonist) • Neomycin—A-site binding enhancer (binding agonist)
A ribosome complex was prepared using the above materials and then purified prior to use in the assay. The prepared complex can be stored in concentrated form at −80° C. The complexes were diluted in buffer and dispensed onto plates. […] Fluorescence polarization was measured at approximately 4 hours after dispensing onto the micro-titer plates.
ASL^Arg was first heated for 2 min at 90° C. in water, after addition of 1/10 V of 10× buffer incubation continued on ice for at least 10 min. Prior to complex formation 70S ribosomes and tRNA were reactivated in buffer for 5 min at 45° C. followed by 10 min at 37° C.; mRNA was heated in buffer at 37° C. for 5 min. • (1000 μl×(2 μM E. coli 70S ribosomes+10 μM mRNA-Arg+4 μM tRNA^fmet)/HAM20,β→30 min @ 37° C.,+1000 μl×(0.2 μM neomycin+[…]))→20 min @ 37° C., overnight on ice • Final complex: (2000 pm P+2000 pm ASL)/2 ml=1 μM P+1 μM ASL HAM20,β:
Preparation of Complexes: The purified complex was diluted in ice cold HAM20,β such that the total fluorescence was approximately 2,000,000 units per 5 μL.
20 μl of the diluted complex was added to all 384 well plates (except for blank wells, which received 20 μL of HAM20 only, without complex) using Multidrop dispenser after which the plates were incubated at 25° C. for 4 hours (target 4.5 hours for middle of batch). Plates were then analyzed for fluorescence polarization in Analyst HT fluorescence plate reader and the following instrument settings:
The parallel and perpendicular fluorescence values of experimental wells were automatically corrected for the corresponding values obtained from the blank wells. The fluorescence polarization was calculated as following: P=(I−Ip)/(I+Ip), wherein Ip—is perpendicular fluorescence and I—is parallel fluorescence.
The percent of effect of experimental compounds was calculated as following: %-Inh=(P0−Pc)/(P0−P100)*100, wherein P0—is average polarization in 0%—inhibition control wells, P100—is average polarization in 100%—inhibition control wells, and Pc—is polarization in compound well.
The 3 sigma HTS hits were cherry picked and retested in 6 pt dose response format, using 3× serial dilution and the top nominal concentration of 100 uM.
The compounds were serially diluted in 10% DMSO and plated into 384 well plates (in a volume of 5 μL) to achieve the nominal final concentration raging from 100 μM to 0.4 μM. The plates received 20 μl of the diluted complex following incubation at 25° C. for 4 hours. Plates were then analyzed for fluorescence polarization as described above (see HTS section).
In parallel, the compounds were tested for auto-fluorescence. To this end, the compounds were plated (using the same dilution protocol) into 384 well plates. The plates received 20 μL of the HAM20 assay buffer only (without complex). The plates were incubated for 4 hrs and then were analyzed for fluorescence polarization as described above.

[3] = system: E. coli 25922; test: MIC; type: cell-based; details: Escherichia coli; E. coli 25922; read-out: MIC
[4] = Mammalian Cell Toxicity; type: cell-based; details: mouse, 3T3 cells
[5] = Mammalian Cell Toxicity; type: cell-based; details: human, MRC5 cells
[6] = system: SA 158 (Staphylococcus aureus 158); test: MIC; type: cell-based; details: SA 158, read-out: MIC
Method: (§1) The strains included Staphylococcus aureus, Methicillin Resistant (ATCC 33591), Methicillin-Resistant Staphylococcus aureus USA300, Staphylococcus aureus 158, Staphylococcus aureus 22, Staphylococcus aureus 2, Staphylococcus aureus (ATCC 29213), and Staphylococcus aureus 182.
(§2) A series of compounds were evaluated for their activity against drug resistant S. aureus, including MSSA and MRSA strains.

[7] = system: SA 22 (Staphylococcus aureus 22); test: MIC; type: cell-based; details: SA 22, read-out: MIC
Method: as §1, §2

[8] = system: SA 2 (Staphylococcus aureus 2); test: MIC; type: cell-based; details: SA 2, read-out: MIC
Method: as §1, §2

[9] = system: SA 29213 (Staphylococcus aureus (ATCC 29213)); test: MIC; type: cell-based; details: ATCC29213, SA 29213, read-out: MIC
Method: as §1, §2

[10] = system: SA USA 300 (Methicillin-Resistant Staphylococcus aureus USA300); test: MIC; type: cell-based; details: SA USA 300, read-out: MIC
Method: as §1, §2

[11] = system: SA 182 (Staphylococcus aureus 182); test: MIC; type: cell-based; details: SA 182, read-out: MIC
Method: as §1, §2

[12] = system: SA 33591 (Staphylococcus aureus, Methicillin Resistant (ATCC 33591)); test: MIC; type: cell-based; details: ATCC33591, SA 33591, read-out: MIC
Method: as §1, §2

[13] = system: K. pneumoniae 700603; test: MIC; type: cell-based; details: Klebsiella pneumoniae; K. pneumoniae 700603; read-out: MIC
[14] = system: S. epidermidis 35984; test: MIC; type: cell-based; details: Staphylococcus epidermidis; S. epidermidis 35984; read-out: MIC
Method: (§3) The compounds were re-tested against other bacteria, including Staphylococcus epidermidis (ATCC 35984), Staphylococcus epidermidis (MRSE), E. faecium 134529, E. faecium 145494, […], E. faecium 161651, S. pneumoniae 49619, and S. pneumoniae 149389.
as §2

[15] = system: E. faecium 145494; test: MIC; type: cell-based; details: Enterococcus faecium; E. faecium 145494; read-out: MIC
Method: as §3, §2

[16] = system: E. faecium 134529; test: MIC; type: cell-based; details: Enterococcus faecium; E. faecium 134529; read-out: MIC
Method: as §3, §2

[17] = system: S. pneumoniae 149389; test: MIC; type: cell-based; details: Streptococcus pneumoniae; S. pneumoniae 149389; read-out: MIC
Method: as §3, §2

[18] = system: E. faecalis 29212; test: MIC; type: cell-based; details: Enterococcus faecalis; E. faecalis 29212; read-out: MIC
Method: as §3, §2

[19] = system: S. epidermidis MRSE 01; test: MIC; type: cell-based; details: Staphylococcus epidermidis; S. epidermidis MRSE 01; read-out: MIC
Method: as §3, §2

[20] = system: S. pneumoniae 49619; test: MIC; type: cell-based; details: Streptococcus pneumoniae; S. pneumoniae 49619; read-out: MIC
Method: as §3, §2

[21] = system: E. faecalis 161651; test: MIC; type: cell-based; details: Enterococcus faecalis; E. faecalis 161651; read-out: MIC
Method: as §3, §2

[22] = system: E. coli ESBL 4; test: MIC; type: cell-based; details: Escherichia coli, ESBL4; E. coli ESBL 4; read-out: MIC

| SMILES | MIC [1] [µg/mL] | MIC [3] [µg/mL] | CC50 [4] [µg/mL] | CC50 [5] [µg/mL] | MIC [6] [µg/mL] | MIC [7] [µg/mL] | MIC [8] [µg/mL] | MIC [9] [µg/mL] | MIC [10] [µg/mL] | MIC [11] [µg/mL] | MIC [12] [µg/mL] | MIC [13] [µg/mL] | MIC [14] [µg/mL] | MIC [15] [µg/mL] | MIC [16] [µg/mL] | MIC [17] [µg/mL] | MIC [18] [µg/mL] | MIC [19] [µg/mL] | MIC [20] [µg/mL] | MIC [21] [µg/mL] | other results |
| --- | --- | --- | --- | --- | --- | --- | --- | --- | --- | --- | --- | --- | --- | --- | --- | --- | --- | --- | --- | --- | --- |
| Oc1ccccc1N=Cc1c(O)c(Br)cc2oc3c(c12)CCCC3 [Compound 136, 3-bromo-1-{[(2-hydroxyphenyl)imino]methyl}-6,7,8,9-tetrahydrodibenzo[b,d]furan-2-ol] | > 128 | > 128 | 2.3 (≈ 5.95 µM) | 6.8 (≈ 17.6 µM) | 32 (≈ 82.8 µM) | 16 (≈ 41.4 µM) | 16 (≈ 41.4 µM) | 32 (≈ 82.8 µM) | 128 (≈ 331 µM) | > 128 | 32 (≈ 82.8 µM) | > 128 | 64 (≈ 166 µM) | > 128 | 64 (≈ 166 µM) | > 128 | 128 (≈ 331 µM) | 8 (≈ 20.7 µM) | > 128 | 128 (≈ 331 µM) | IC50 ([2]; read-out: IC50): 80 µM; MIC [22]: > 128 µg/mL |
| O=C(O)C(c1ccccc1)N1C(=O)C(=Cc2c[nH]c3ccccc23)SC1=S (stereo not drawn) [Compound 537, [5-(1H-indol-3-ylmethylene)-4-oxo-2-thioxo-1,3-thiazolidin-3-yl](phenyl)acetic acid] | > 128 | > 128 | 20 to 64 (≈ 50.7 to 162 µM) | 38 (≈ 96.3 µM) | 64 (≈ 162 µM) | 64 (≈ 162 µM) | 128 (≈ 324 µM) | 64 (≈ 162 µM) | 64 (≈ 162 µM) | 64 (≈ 162 µM) | 64 (≈ 162 µM) | > 128 | 128 (≈ 324 µM) | > 128 | 128 (≈ 324 µM) | 64 (≈ 162 µM) | 128 (≈ 324 µM) | 128 (≈ 324 µM) | 32 (≈ 81.1 µM) | 128 (≈ 324 µM) | IC50 [2]: agonist; MIC [22]: > 128 µg/mL |
| CN1CCN(c2nc(C=Cc3ccccc3)nc3ccccc23)CC1 [Compound #096, 4-(4-methyl-1-piperazinyl)-2-(2-phenylvinyl)quinazoline] | > 128 | > 128 | 51.5 (≈ 156 µM) | 62 (≈ 188 µM) | 128 (≈ 387 µM) | 64 (≈ 194 µM) | 32 (≈ 96.8 µM) | 64 (≈ 194 µM) | 64 (≈ 194 µM) | 128 (≈ 387 µM) | > 128 | > 128 | > 128 | 128 (≈ 387 µM) | 64 (≈ 194 µM) | 64 (≈ 194 µM) | 128 (≈ 387 µM) | 128 (≈ 387 µM) | 64 (≈ 194 µM) | 128 (≈ 387 µM) | IC50 ([2]; read-out: IC50): 91 µM; MIC [22]: > 128 µg/mL |

— patent publication US10316371B2, “Screening methods for identifying specific Staphylococcus aureus inhibitors” (TRANA DISCOVERY, INC., priority 2011, dated 2019)
